Experimental data reported in patent US20230109839A1, “THERAPEUTIC AGENT FOR TAUOPATHIES” (SUMITOMO PHARMA CO., LTD., priority 2020, published 2023).
Entries after “also recorded” stand apart in the source; their conditions may differ. Read-outs that look alike come from different tables or passages of the source.

Columns and labels:
human Nav1.1 = target: T1, human Nav1.1 (Homo sapiens, UniProt P35498); experiment: Amplification of Nav1.1-derived voltage-gated sodium current (Nav1.1 current), automated patch clamp (Test 1); assay type: cell-based; details: read-out: Nav1.1 current amplification rate (%)
T1 construct: host or cells: HEK293
Outline: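 Compound-induced change in ramp-evoked sodium current peak and AUC was expressed as 100×post/pre ratio minus 100. Recordings used automated patch clamp in voltage-clamp mode on a stable human Nav1.1 HEK293 line, including only cells above 500 pA. Compounds were delivered in extracellular fluid containing 1% DMSO.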

[1] = test system: phosphorylated tau oligomer; experiment: Evaluation of phosphorylated tau oligomers in brain of APP-Tg mice, Western blotting (Test 4); assay type: in vivo, mouse; details: for Reducing effect of phosphorylated tau oligomer: 7-10 days, with ABT 1 mg/g-food; for reducing effect of tau oligomer: with food for 7-10 days, ABT 1 mg/g-food depending on the compound, brain, anti-oligomerized tau antibody TOMA-1
Description: Test 4: Evaluation of Phosphorylated Tau Oligomers Using APP-Tg Mice
This test is a test to quantify the oligomer of phosphorylated tau in the brain to evaluate the action of a compound. […] The APP-Tg mice used herein were prepared by the method described in Test 3.
The test compound administered with food to APP-Tg mice for 7-10 days. At this time, in order to increase the blood concentration of the test compound, ABT was used in combination with a mixed diet of 1 mg/g-food depending on the compound. After the administration, the brain was collected, and the protein is extracted from the collected brain using TBS (Tris Buffered Saline) or sarcosyl, and then SDS-PAGE (sodium dodecyl sulfate-polyacrylamide gel electrophoresis) of the soluble or insoluble fraction was performed. After that, Western blotting was performed using an anti-oligomerized tau antibody (Anti-Tau, oligomeric, clone TOMA-1), and the effect of the test compound was evaluated by quantifying the band amount of the phosphorylated tau oligomer.
The reducing effect of phosphorylated tau oligomer was calculated by the following formula, and from the calculated values, the results were defined as follows: 0-25%: +, 25-50%: ++, 50-75%: +++, and 75-100%: ++++. The significant difference from the vehicle-administered group was determined using the Student t-test. For the band amount, the value corrected by the β-actin band amount was used.
Reducing effect of phosphorylated tau oligomer={(band amount of oligomerized tau in vehicle-administered group−band amount of oligomerized tau in test compound-administered group)/band amount of oligomerized tau in vehicle-administered group}×100

APP-Tg mouse = experiment: Evaluation of the cognitive function by novel object recognition test (NORT) in APP-Tg mice (Test 3); assay type: in vivo; design: key to Discrimination index: (novel − known search time)/(novel + known search time); details: for improvement of cognitive function (NORT), summary of the above results / improvement of cognitive function (NORT): APP-Tg mice; for improvement of cognitive function (NORT), summary of the above results: alone, with Elacridar or with ABT depending on the compound; for Discrimination index: APP-Tg mouse
Description: Test 3: Evaluation of the Cognitive Function by Novel Object Recognition Test (Hereinafter, Also Referred to as “NORT”)
The present test is for evaluating the improvement of cognitive function with the test compounds. When an APP-Tg mouse which is an AD (Alzheimer's disease) model mouse is evaluated by NORT, the memory for a familiar object decreases depending on the time interval between the first trial run (training) and the second trial run (test). For example, if the first trial run is done and 3 hours later the second one is done, there is no difference in the searching times between novel object and known object for the APP-Tg mouse, compared with a healthy mouse. Thus, the APP-Tg mouse suffers from significant amnesia.
The APP-Tg mouse used herein was prepared by constructing an expression cassette linked to human APP751 isoform to which Swedish (K670N/M671L) and Indiana (V717F) mutation were introduced at downstream of mouse Thy-1 promoter, then injecting the expression cassette into a mouse fertilized egg, and transplanting it to a host mouse. The prepared mouse presents with intracerebral AB accumulation and cognitive dysfunction from early on, and thus the mouse can be used for the evaluation of cognitive function. APP-Tg mouse has been also reported in Non-patent literature 6.
To the prepared APP-Tg mouse, the test compound was administered, and then the first trial run was done for the mouse 30 minutes after the intraperitoneal administration or after 10 days of mixed diet administration. The second trial run was done 3 hours after the first trial run, and the searching times between novel object and known object in the second trial were evaluated. The discrimination index was calculated from the searching time for novel object and known object in the second trial run, and the improvement of cognitive function of the test compound was confirmed by comparing the discrimination index with the test compound-unadministered group as an index of the cognitive function. The discrimination index was calculated by the following formula.
Discrimination index={(Searching time for novel object)−(Searching time for known object)}/{(Searching time for novel object)+(Searching time for known object)}
The present test can be also done with a combination with Elacridar (Tokyo Chemical Industry Co., Ltd.). Elacridar can inhibit P-gp and BCRP which are excretion transporters expressed in the blood-brain barrier and thereby Elacridar has the effect of improving the transferability of the test compound to the brain. Eracridal was orally administered to APP-Tg mice at 100 mg/kg 2 hours before the first trial run, and then the test compound was intraperitoneally administered to the mice 30 minutes before the first trial run according to the above method. And, the improvement of cognitive function was evaluated. The significant difference from the vehicle-administered group was determined using the parametric Dunnett multiple comparison test.
And, the present test can be also done with a combination with ABT (1-aminobenzotriazole) (Tokyo Chemical Industry Co., Ltd.). ABT has the effect of improving the blood concentration of the test compound by inhibiting CYP and suppressing metabolism. The test compound and ABT (1 mg/g-food) were administered with food to APP-Tg mice for 10 days, and then the improvement of cognitive function was evaluated according to the above method. The significant difference from the vehicle-administered group was determined using the parametric Dunnett multiple comparison test.

[2] = HEK293, Concentration for evaluation 1 μM, HEK293 cell line stably expressing human Nav1.1
[3] = test compound and ABT (1 mg/g-food) administered with food for 10 days
[4] = dose 0.2 mg/g-food for 10 days, with ABT 1 mg/g-food
[5] = dose 2 mg/g-food for 10 days, with ABT 1 mg/g-food
[6] = HEK293, concentration for evaluation 1 μM, HEK293 stably expressing human Nav1.1
[7] = dose 60 (mg/g i.p.), with Elacridar 100 mg/kg orally 2 hours before first trial run
[8] = with Elacridar 100 mg/kg orally 2 hours before first trial run

Structure (SMILES)	activation at 1 µM (human Nav1.1; [2]) [%]	Reducing effect of phosphorylated tau oligomer ([1]; dose 2 mg/g-food)	improvement of cognitive function (NORT), summary of the above results (APP-Tg mouse)	improvement of cognitive function (NORT) (APP-Tg mouse; [3])	Discrimination index (APP-Tg mouse; [4])	Discrimination index (APP-Tg mouse; [5])	Reducing effect of phosphorylated tau oligomer ([1]; dose 0.2 mg/g-food)	reducing effect of tau oligomer [1]	also measured
Cc1cc(NC(=O)Cn2nc(C3=CCC(C)CC3)ccc2=O)cc(C)n1 (stereo not shown) [Example 364, N-(2,6-dimethylpyridin-4-yl)-2-[3-(4-methylcyclohex-1-en-1-yl)-6-oxopyridazin-1(6H)-yl]acetamide]	25	+ (0-25%: +)							Reducing effect of phosphorylated tau oligomer ([1]; dose 0.6 mg/g-food): + (0-25%: +)
N#Cc1ccc(NC(=O)Cn2ncc3ncc(N4CCC5(CC5)C(F)(F)C4)nc32)cn1 [Example 746, N-(6-cyanopyridin-3-yl)-2-[6-(4,4-difluoro-6-azaspiro[2.5]octan-6-yl)-1H-pyrazolo[3,4-b]pyrazin-1-yl]acetamide]	102	++ (25-50%: ++)	some improvement of cognitive function	some improvement of cognitive function	0.28	0.38	++ (25-50%: ++)	some reducing effect of tau oligomer	
CN(c1ncc2cnn(CC(=O)Nc3ccc4ncnn4c3)c2n1)C1CC(C)(C)C1 [Example 821, 2-{6-[(3,3-dimethylcyclobutyl)(methyl)amino]-1H-pyrazolo[3,4-d]pyrimidin-1-yl}-N-([1,2,4]triazolo[1,5-a]pyridin-6-yl)acetamide]		+ (0-25%: +)	some improvement of cognitive function	some improvement of cognitive function; also recorded: strong improvement of cognitive function	0.30	0.37	+ (0-25%: +)		activation at 1 µM (human Nav1.1; [6]): 116%
CN(c1ccc(=O)n(CC(=O)N2CCc3c(N4CCOCC4)cccc32)n1)C1CCCC1 [Example 565, 6-[cyclopentyl(methyl)amino]-2-{2-[4-(morpholin-4-yl)-2,3-dihydro-1H-indol-1-yl]-2-oxoethyl}pyridazin-3(2H)-one]								some reducing effect of tau oligomer; also recorded: strong reducing effect of tau oligomer	Reducing effect of phosphorylated tau oligomer ([1]; dose 0.5 mg/g-food): +++ (50-75%: +++); Reducing effect of phosphorylated tau oligomer ([1]; dose 4.5 mg/g-food): ++ (25-50%: ++)
O=C(Cn1ncc2ncc(N3CCC4(CC4)C(F)(F)C3)nc21)Nc1ccn2ncnc2c1 [Example 609, 2-[6-(4,4-difluoro-6-azaspiro[2.5]octan-6-yl)-1H-pyrazolo[3,4-b]pyrazin-1-yl]-N-([1,2,4]triazolo[1,5-a]pyridin-7-yl)acetamide]	84		some improvement of cognitive function						improvement of cognitive function (NORT) (APP-Tg mouse; Elacridar orally 100 mg/kg 2 hours before, test compound intraperitoneally 30 minutes before the first trial run, 100 mg/kg): some improvement of cognitive function; also recorded: strong improvement of cognitive function; Discrimination index (APP-Tg mouse; [7]): 0.29; Discrimination index (APP-Tg mouse; [8]): 0.29
CN(c1cnc2cnn(CC(=O)Nc3ccn4ncnc4c3)c2n1)C1CCCC1 [Example 593, 2-{6-[cyclopentyl(methyl)amino]-1H-pyrazolo[3,4-b]pyrazin-1-yl}-N-([1,2,4]triazolo[1,5-a]pyridin-7-yl)acetamide]	78		some improvement of cognitive function						improvement of cognitive function (NORT) (APP-Tg mouse; Elacridar orally 100 mg/kg 2 hours before, test compound intraperitoneally 30 minutes before the first trial run): some improvement of cognitive function; Discrimination index (APP-Tg mouse; [7]): 0.20; Discrimination index (APP-Tg mouse; [8]): 0.11
Cc1ncccc1N1CCN(C(=O)Cn2nc(C3=CCC(C)CC3)ccc2=O)CC1 (stereo not shown) [Example 410, 6-(4-methylcyclohex-1-en-1-yl)-2-{2-[4-(2-methylpyridin-3-yl)piperazin-1-yl]-2-oxoethyl}pyridazin-3 (2H)-one]		+ (0-25%: +)						some reducing effect of tau oligomer; also recorded: strong reducing effect of tau oligomer	activation at 3 µM (human Nav1.1; HEK293, Concentration for evaluation 3 μM, HEK293 cell line stably expressing human Nav1.1): 66%; Reducing effect of phosphorylated tau oligomer ([1]; dose 0.6 mg/g-food): +++ (50-75%: +++)
CN(c1cnc2cnn(CC(=O)Nc3ccc(C#N)nc3)c2n1)C1CC2(CC2)C1 [Example 753, N-(6-cyanopyridin-3-yl)-2-{6-[methyl(spiro[2.3]hexan-5-yl)amino]-1H-pyrazolo[3,4-b]pyrazin-1-yl}acetamide]	106							some reducing effect of tau oligomer	Discrimination index (APP-Tg mouse; dose 0.1 mg/g-food for 10 days, with ABT 1 mg/g-food): 0.21; Discrimination index (APP-Tg mouse; dose 4 mg/g-food for 10 days, with ABT 1 mg/g-food): 0.28; Reducing effect of phosphorylated tau oligomer ([1]; dose 0.1 mg/g-food): ++ (25-50%: ++); Reducing effect of phosphorylated tau oligomer ([1]; dose 4 mg/g-food): ++ (25-50%: ++)
CN(CC1CCC1)c1ncc2cnn(CC(=O)Nc3ccc4ncnn4c3)c2n1 [Example 819, 2-{6-[(cyclobutylmethyl)(methyl)amino]-1H-pyrazolo[3,4-d]pyrimidin-1-yl}-N-([1,2,4]triazolo[1,5-a]pyridin-6-yl)acetamide]		+ (0-25%: +)	some improvement of cognitive function	some improvement of cognitive function; also recorded: strong improvement of cognitive function	0.47	0.52	++ (25-50%: ++)	some reducing effect of tau oligomer	activation at 1 µM (human Nav1.1; [6]): 88%
